From patent US10961238B2, “Modulators of hedgehog (Hh) signaling pathway” (E-THERAPEUTICS PLC, priority 2016, dated 2021) come the findings set out here.

Read-outs that look alike come from different tables or passages of the source. Bounds are passed on as bounds.

The test deals with C3H10T1/2 cells. Briefly: C3H assay: differentiation of C3H10T1/2 cells by mSHH, measurement of alkaline phosphatase. It is filed as cell-based, mouse. The following applies: read-out: IC50 Ranges.
The mark [1] stands for this setting: Mus musculus, C3H 10T1/2, C3H10T1/2 cells stimulated with mSHH for 72 hours, alkaline phosphatase activity.

Take `O=C(Oc1ccccc1O)N1CC(S(=O)(=O)N2CCC(c3c[nH]c4ncccc34)CC2)C1` [Compound 183, (2-hydroxyphenyl) 3-[4-(1H-pyrrolo[2,3-b]pyridin-3-yl)piperidin-1-yl]sulfonylaze-tidine-1-carboxylate]: the IC50 under setting [1] was in the range of 100 to 1000 nM.
The same measure, in the same setting: for `O=S(=O)(C1CN(c2nc(C(F)(F)F)ccc2C(F)(F)F)C1)N1CCC(c2c[nH]c3ncccc23)CC1` [Compound 184, 3-[1-[1-[3,6-bis(trifluoromethyl)pyridin-2-yl]azetidin-3-yl]sulfonylpiper-idin-4-yl]-1H-pyrrolo[2,3-b]pyridine] the value was 100 to 1000 nM.
The same measure, in the same setting: for `COc1ccc(C(F)(F)F)c(N2CC(S(=O)(=O)N3CCC(c4c[nH]c5ncccc45)CC3)C2)n1` [Compound 185, 3-[1-[1-[6-methoxy-3-(trifluoromethyl)pyridin-2-yl]azetidin-3-yl]sulfonylpiper-idin-4-yl]-1H-pyrrolo[2,3-b]pyridine] the value was 100 to 1000 nM; for `O=S(=O)(C1CN(c2ncccc2C(F)(F)F)C1)N1CCC(c2c[nH]c3ncccc23)CC1` [Compound 186, 3-[1-[1-[3-(trifluoromethyl)pyridin-2-yl]azetidin-3-yl]sulfonylpiper-idin-4-yl]-1H-pyrrolo [2,3-b]pyridine], 100 to 1000 nM; for `Cc1ccnc(N2CC(S(=O)(=O)N3CCC(c4c[nH]c5ncccc45)CC3)C2)c1C#N` [Compound 187, 4-methyl-2-[3-[4-(1H-pyrrolo[2,3-b]pyridin-3-yl)piperidin-1-yl]sulfonylaze-tidin-1-yl]pyridine-3-carbonitrile], 100 to 1000 nM.
Still for that read-out and setting: in the case of `O=C(C1CCCCC1)N1CC(S(=O)(=O)N2CCC(c3c[nH]c4ncccc34)CC2)C1` [Compound 189, Cyclohexyl-[3-[[4-(1H-pyrrolo[2,3-b]pyridin-3-yl)-1-piperidyl]sulfonyl]azetidin-1-yl]methanone] it was 10 to 100 nM; in that of `O=C(C1CCCC1)N1CC(S(=O)(=O)N2CCC(c3c[nH]c4ncccc34)CC2)C1` [Compound 190, cyclopentyl-[3-[4-(1H-pyrrolo[2,3-b]pyridin-3-yl)piperidin-1-yl]sulfonylaze-tidin-1-yl]methanone], 10 to 100 nM.
Consider `O=C(C1CC1)N1CC(S(=O)(=O)N2CCC(c3c[nH]c4ncccc34)CC2)C1` [Compound 191, cyclopropyl-[3-[4-(1H-pyrrolo[2,3-b]pyridin-3-yl)piperidin-1-yl]sulfonylaze-tidin-1-yl]methanone], for which, under setting [1], the IC50 was 100 to 1000 nM.
On to `O=C(c1ccccn1)N1CC(S(=O)(=O)N2CCC(c3c[nH]c4ncccc34)CC2)C1` [Compound 192, pyridin-2-yl-[3-[4-(1H-pyrrolo[2,3-b]pyridin-3-yl)piperidin-1-yl]sulfonylaze-tidin-1-yl]methanone], for which, under setting [1], the IC50 was in the range of 100 to 1000 nM.
On the same count and under the same terms, in the case of `O=C(c1cccs1)N1CC(S(=O)(=O)N2CCC(c3c[nH]c4ncccc34)CC2)C1` [Compound 193, [3-[4-(1H-pyrrolo[2,3-b]pyridin-3-yl)piperidin-1-yl]sulfonylaze-tidin-1-yl]-thiophen-2-ylmethanone] it was 10 to 100 nM; in that of `CC(C)C(=O)N1CC(S(=O)(=O)N2CCC(c3c[nH]c4ncccc34)CC2)C1` [Compound 194, 2-methyl-1-[3-[4-(1H-pyrrolo[2,3-b]pyridin-3-yl)piperidin-1-yl]sulfonylaze-tidin-1-yl]propan-1-one], 100 to 1000 nM.
With `CC(C)CC(=O)N1CC(S(=O)(=O)N2CCC(c3c[nH]c4ncccc34)CC2)C1` [Compound 195, 3-methyl-1-[3-[4-(1H-pyrrolo[2,3-b]pyridin-3-yl)piperidin-1-yl]sulfonylaze-tidin-1-yl]butan-1-one], under setting [1], the IC50 lay within 10 to 100 nM.
Still for that read-out and setting: in the case of `O=C(O[C@@H]1CCOC1)N1CC(S(=O)(=O)N2CCC(c3c[nH]c4ncccc34)CC2)C1` [Compound 196, [(3R)-oxolan-3-yl]3-[4-(1H-pyrrolo[2,3-b]pyridin-3-yl)piperidin-1-yl]sulfonylaze-tidine-1-carboxylate] it was 100 to 1000 nM; in that of `O=C(O[C@H]1CCOC1)N1CC(S(=O)(=O)N2CCC(c3c[nH]c4ncccc34)CC2)C1` [Compound 197, [(3S)-oxolan-3-yl]3-[4-(1H-pyrrolo[2,3-b]pyridin-3-yl)piperidin-1-yl]sulfonylaze-tidine-1-carboxylate], 10 to 100 nM.
Still for that read-out and setting: for `O=C(OC1CCC1)N1CC(S(=O)(=O)N2CCC(c3c[nH]c4ncccc34)CC2)C1` [Compound 198, cyclobutyl 3-[4-(1H-pyrrolo[2,3-b]pyridin-3-yl)piperidin-1-yl]sulfonylaze-tidine-1-carboxylate] the value was 10 to 100 nM.
On the same count and under the same terms, in the case of `CC1(COC(=O)N2CC(S(=O)(=O)N3CCC(c4c[nH]c5ncccc45)CC3)C2)COC1` [Compound 199, (3-methyloxetan-3-yl)methyl 3-[4-(1H-pyrrolo[2,3-b]pyridin-3-yl)piperidin-1-yl]sulfonylaze-tidine-1-carboxylate] it was 10 to 100 nM; in that of `CC[C@@H](C)OC(=O)N1CC(S(=O)(=O)N2CCC(c3c[nH]c4ncccc34)CC2)C1` [Compound 200, [(2R)-butan-2-yl]3-[4-(1H-pyrrolo[2,3-b]pyridin-3-yl)piperidin-1-yl]sulfonylaze-tidine-1-carboxylate], 10 to 100 nM.
Consider `O=C(OCC1CCC1)N1CC(S(=O)(=O)N2CCC(c3c[nH]c4ncccc34)CC2)C1` [Compound 201, cyclobutylmethyl 3-[4-(1H-pyrrolo[2,3-b]pyridin-3-yl)piperidin-1-yl]sulfonylaze-tidine-1-carboxylate], for which the IC50 under setting [1] lay within 10 to 100 nM.
On to `Cc1noc(C)c1COC(=O)N1CC(S(=O)(=O)N2CCC(c3ccncc3)CC2)C1` [Compound 202, (3,5-dimethyl-1,2-oxazol-4-yl)methyl 3-(4-pyridin-4-ylpiperidin-1-yl)sulfonylaze-tidine-1-carboxylate], for which, under setting [1], the IC50 lay in the range of 100 to 1000 nM.
On the same count and under the same terms, in the case of `Cc1noc(C)c1CNC(=O)N1CC(S(=O)(=O)N2CCC(c3ccncc3)CC2)C1` [Compound 203, N-[(3,5-dimethyl-1,2-oxazol-4-yl)methyl]-3-(4-pyridin-4-ylpiperidin-1-yl)sulfonylaze-tidine-1-carboxamide] it was 1000 to 10000 nM.
`O=C(OCC1CC1)N1CC(S(=O)(=O)N2CCC(c3c[nH]c4ncccc34)CC2)C1` [Compound 204, cyclopropylmethyl 3-[4-(1H-pyrrolo[2,3-b]pyridin-3-yl)piperidin-1-yl]sulfonylaze-tidine-1-carboxylate]: the IC50 under setting [1] is 10 to 100 nM.
Same read-out and setting: for `Cc1noc(C)c1CC(=O)N1CC(S(=O)(=O)N2CCC(c3ccncc3)CC2)C1` [Compound 205, 2-(3,5-dimethyl-1,2-oxazol-4-yl)-1-[3-(4-pyridin-4-ylpiperidin-1-yl)sulfonylaze-tidin-1-yl]ethanone] the value was 10 to 100 nM; for `CCN(C(=O)N1CC(S(=O)(=O)N2CCC(c3c[nH]c4ncccc34)CC2)C1)C(C)C` [Compound 206, N-ethyl-N-propan-2-yl-3-[4-(1H-pyrrolo[2,3-b]pyridin-3-yl)piperidin-1-yl]sulfonylaze-tidine-1-carboxamide], 10 to 100 nM.
Same read-out and setting: for `O=C(OCc1cccc(Oc2ccccc2)c1)N1CC(S(=O)(=O)N2CCC(c3c[nH]c4ncccc34)CC2)C1` [Compound 207, (3-phenoxyphenyl) methyl 3-[4-(1H-pyrrolo [2,3-b]pyridin-3-yl)piperidin-1-yl]sulfonylaze-tidine-1-carboxylate] the value was 10 to 100 nM.
Same read-out and setting: for `Cc1cc(C)cc(OC(=O)N2CC(S(=O)(=O)N3CCC(c4c[nH]c5ncccc45)CC3)C2)c1` [Compound 208, (3,5-dimethylphenyl) 3-[4-(1H-pyrrolo[2,3-b]pyridin-3-yl)piperidin-1-yl]sulfonylaze-tidine-1-carboxylate] the value was 100 to 1000 nM; for `COc1ccc(COC(=O)N2CC(S(=O)(=O)N3CCC(c4c[nH]c5ncccc45)CC3)C2)cc1F` [Compound 209, (3-fluoro-4-methoxyphenyl) methyl 3-[4-(1H-pyrrolo[2,3-b]pyridin-3-yl)piperidin-1-yl]sulfonylaze-tidine-1-carboxylate], 10 to 100 nM; for `O=C(OC1CCNCC1)N1CC(S(=O)(=O)N2CCC(c3c[nH]c4ncccc34)CC2)C1` [Compound 210, piperidin-4-yl 3-[4-(1H-pyrrolo[2,3-b]pyridin-3-yl)piperidin-1-yl]sulfonylaze-tidine-1-carboxylate], 100 to 1000 nM.
As to `CC(C)(C)OC(=O)N1CCC(OC(=O)N2CC(S(=O)(=O)N3CCC(c4c[nH]c5ncccc45)CC3)C2)CC1` [Compound 211, tert-butyl 4-[3-[4-(1H-pyrrolo[2,3-b]pyridin-3-yl)piperidin-1-yl]sulfonylaze-tidine-1-carbonyl] oxypiperidine-1-carboxylate], under setting [1], the IC50 was in the range of 10 to 100 nM.
As for `O=C(Oc1cccnc1)N1CC(S(=O)(=O)N2CCC(c3c[nH]c4ncccc34)CC2)C1` [Compound 212, pyridin-3-yl 3-[4-(1H-pyrrolo [2,3-b]pyridin-3-yl)piperidin-1-yl]sulfonylaze-tidine-1-carboxylate], the IC50 (Mus musculus, C3H 10T1/2, 72 h) fell in the range of 10 to 100 nM.
Turning to `O=C(OCc1cccc([N+](=O)[O-])c1)N1CC(S(=O)(=O)N2CCC(c3c[nH]c4ncccc34)CC2)C1` [Compound 213, (3-nitrophenyl) methyl 3-[4-(1H-pyrrolo[2,3-b]pyridin-3-yl)piperidin-1-yl]sulfonylaze-tidine-1-carboxylate], the IC50 (C3H10T1/2 cells stimulated with mSHH for 72 hours, alkaline phosphatase activity) is less than 10 nM.
As to `COc1ccc(COC(=O)N2CC(S(=O)(=O)N3CCC(c4c[nH]c5ncccc45)CC3)C2)cc1` [Compound 214, (4-methoxyphenyl) methyl 3-[4-(1H-pyrrolo[2,3-b]pyridin-3-yl)piperidin-1-yl]sulfonylaze-tidine-1-carboxylate], under setting [1], the IC50 fell in the range of 10 to 100 nM.
Take `COc1cccc(OC(=O)N2CC(S(=O)(=O)N3CCC(c4c[nH]c5ncccc45)CC3)C2)c1` [Compound 215, (3-methoxyphenyl) 3-[4-(1H-pyrrolo[2,3-b]pyridin-3-yl)piperidin-1-yl]sulfonylaze-tidine-1-carboxylate]: the IC50 under setting [1] was 10 to 100 nM.

One may read the IC50 as the point on the concentration scale where inhibition reaches its midpoint.
